“Also recorded” adds a separate entry of the source. Non-standard residues stand in square brackets, D forms with d. Residues, ends and D or L forms follow the SMILES beside them. Phe(4-guanidino) = N=C(N)Nc1ccc(C[C@H](N)C(=O)O)cc1; Abu(4-SO3H) = N[C@@H](CCS(=O)(=O)O)C(=O)O
What was measured:
[1] = test system: NCI-H460 human non-small cell lung cancer cells; settings: cited from earlier work
[2] = test system: NCI-H460 human non-small-cell lung cancer cells; assay: Cell killing alone or in combination with 2-deoxyglucose, alamarBlue; type: cell-based; settings: 3.125 mmol 2-DOG
Experimental: NCI-H460 human non-small-cell lung cancer cells were contacted with HILR-025 or HILR-D-07 alone or in combination with 3.125 mmol 2-DOG and cell survival was determined using AlamaBlue® cell viability reagent (Life Technologies, Inc.) in accordance with the manufacturer's instructions.

[3] = test system: Lactate Dehydrogenase A [LDHA]; assay: LDH activity assay on lysates of treated NCI-H460 cells; settings: higher concentrations, particularly later time point
Experimental: Therefore a BCA assay was conducted to estimate the total amount of protein present in each LDH assay lysate and this was used to normalise the enzyme activity data. As an indication of cell viability, an Alamar blue assay was also carried out at both timepoints, to serve as an additional point of reference.
1) NCI-H460 cells were grown in Ham's F12 media supplemented with 10% FBS. 2) Cells were harvested and seeded into 96-well plates at either 500 cells/well (for the 96 h timepoint) or 5000 cells/well for the 24 h timepoint. […] 6) At the end of the assay (24 or 96 h), Alamar blue 10% (v/v) was added to one set of plates, incubated for a further 4 hours, and fluorescent product detected using the BMG FLUOstar plate reader. […] 10) LDH activity was measured in the cleared lysates using an LDH activity kit (Abeam, ab102526). 11) After preparation of the LDH activity assay reactions, according to the manufacturer's instructions, absorbance at 450 nm was measured at the initial time to determine (A450)initial 12) Further absorbance readings were taken at 3 minute intervals for up to 15 minutes.
14) The change in measurement from Tinitial to Tfinal for each sample was calculated: 11A450=(A450)final−(A450)initial 15) The NADH standard curve was used to interpolate the 11A450 for each sample to determine the amount of NADH generated by the kinase assay between Tinitial and Tfinal (B). […]

NCI-H460 cells [4] = assay: HILR-001 with or without 30 nM Olaparib, alamarBlue and CellTiter-Glo time course; type: cell-based, human
Experimental: Four concentrations of HILR-001 were tested in the presence or absence of 30 nM Olaparib; At each time point cell viability was measured by two assay readouts, alamarBlue® and CellTiter-Glo. Conversion of alamarBlue® to a fluorescent product serves as a readout of the metabolic activity of cells, whereas CellTiter-Glo is based on quantification of the ATP present.
1) NCI-H460 cells were grown in Ham's F12 media supplemented with 10% FBS. 2) Cells were harvested and seeded into 96-well plates at 500 cells/well. 3) HILR-001 was made up from a 10 mM stock solution and added directly to cells in doubling dilutions starting at 200 μM. Olaparib was made up from a 10 mM stock solution and added directly to cells at 30 nM. The total final DMSO concentration was 0.25%. 4) Cells were grown with compound for 24, 48, 72 or 96 hours at 37° C. 5% CO2 in a humidified atmosphere. 5) AlamarBlue® 10% (v/v) was then added and incubated for a further 4 hours, and fluorescent product detected using the BMG FLUOstar plate reader. 6) On duplicate plates the media was removed from the cells, CellTiter-Glo was diluted in PBS (1:10) and 100 μl added to the cells. 7) Plates were mixed on an orbital shaker for 2 minutes and incubated for a further 10 minutes at room temperature. Luminescent signal was then measured using the BMG FLUOstar plate reader.

human cancer cell lines = settings: cited from earlier work
NCI-H460 cells [5] = assay: NCI-H460 cell viability, alamarBlue (resazurin), 96 hours; type: cell-based, human; settings: FIG. 13
Experimental: 1) NCI-H460 cells were grown in Ham's F12 media supplemented with 10% FBS. 2) Cells were harvested and seeded into 96-well plates at 500 cells/well. 3) Compounds were made up from stock solutions and added directly to cells in doubling dilutions starting at 200 μM. Final DMSO concentration was 0.2%. 4) Cells were grown with compound for 96 hours at 37° C. 5% CO2 in a humidified atmosphere. 5) A resazurin dye composition (AlamarBlue® cell viability reagent (Life Technologies, Inc.)) 10% (v/v) was then added and incubated for a further 4 hours, and fluorescent product detected using the BMG FLUOstar plate reader. 6) Media only background readings were subtracted before data were analysed using a 4-parameter logistic equation in GraphPad Prism. The IC50 of HILR-30 was determined as 6 μM.
1) NCI-H460 cells were grown in Ham's F12 media supplemented with 10% FBS. 2) Cells were harvested and seeded into 96-well plates at 500 cells/well. 3) Olaparib was made up from stock solutions and added directly to cells in semi-log dilutions starting at 30 μM. Final DMSO concentration was 0.3%. […] 5) AlamarBlue® cell viability reagent (Life Technologies, Inc.) 10% (v/v) was then added and incubated for a further 4 hours, and fluorescent product detected using the BMG FLUOstar plate reader. 6) Data were analysed using a 4-parameter logistic equation in GraphPad Prism.

[6] = 30 nM Olaparib with 50 μM HILR-001

For `CC(C)C[C@@H]1NC(=O)[C@H](C)NC(=O)[C@H](C(C)C)NC(=O)[C@@H]2CCCN2C(=O)[C@H](CCCNC(=N)N)NC(=O)[C@@H]2CCCN2C(=O)CNC(=O)[C@H](CCCNC(=N)N)NC(=O)[C@@H]2CCCN2C(=O)[C@H](CC(C)C)NC(=O)[C@H](C)NC(=O)[C@H](CC(C)C)NC(=O)[C@H](CCCCN)NC(=O)[C@H](CC(C)C)NC(=O)[C@H](C)NC(=O)[C@H](CC(C)C)NC(=O)[C@H](CCCCN)NC1=O` [HILR-001] (HELM PEPTIDE1{P.R.G.P.R.P.V.A.L.K.L.A.L.K.L.A.L}$PEPTIDE1,PEPTIDE1,1:R1-17:R2$$$V2.0), the “killing NCI-H460 human non-small cell lung cancer cells” value [1] is given as “(“THR54”) ACTIVE”.

With `CC(C)[C@@H]1NC(=O)[C@@H]2CCCN2C(=O)[C@H](CCCNC(=N)N)NC(=O)[C@@H]2CCCN2C(=O)CNC(=O)[C@H](CCCNC(=N)N)NC(=O)[C@@H]2CCCN2C(=O)[C@H](Cc2c[nH]c3ccccc23)NC(=O)[C@H](Cc2c[nH]c3ccccc23)NC(=O)[C@H](CCCNC(=N)N)NC(=O)[C@H](CCCNC(=N)N)NC(=O)[C@H](Cc2c[nH]c3ccccc23)NC(=O)[C@H](Cc2c[nH]c3ccccc23)NC(=O)[C@H](CCCNC(=N)N)NC(=O)[C@H](CCCNC(=N)N)NC(=O)[C@H](Cc2c[nH]c3ccccc23)NC(=O)[C@H](Cc2c[nH]c3ccccc23)NC1=O` [HILR-025] (HELM PEPTIDE1{P.R.G.P.R.P.V.W.W.R.R.W.W.R.R.W.W}$PEPTIDE1,PEPTIDE1,1:R1-17:R2$$$V2.0) the “cell killing ability with co-administration of 2-DOG” value [2] was “enhanced” and the “cell death during LDH study” value [3] was “Significant cell death”.

With `CC(C)[C@@H]1NC(=O)[C@@H]2CCCN2C(=O)[C@H](CCCNC(=N)N)NC(=O)[C@@H]2CCCN2C(=O)CNC(=O)[C@H](CCCNC(=N)N)NC(=O)[C@@H]2CCCN2C(=O)[C@H](Cc2c[nH]c3ccccc23)NC(=O)[C@H](Cc2c[nH]c3ccccc23)NC(=O)[C@H](Cc2ccc(NC(=N)N)cc2)NC(=O)[C@H](Cc2ccc(NC(=N)N)cc2)NC(=O)[C@H](Cc2c[nH]c3ccccc23)NC(=O)[C@H](Cc2c[nH]c3ccccc23)NC(=O)[C@H](Cc2ccc(NC(=N)N)cc2)NC(=O)[C@H](Cc2ccc(NC(=N)N)cc2)NC(=O)[C@H](Cc2c[nH]c3ccccc23)NC(=O)[C@H](Cc2c[nH]c3ccccc23)NC1=O` [HILR-030] (cyclo(PRGPRPVWW[Phe(4-guanidino)][Phe(4-guanidino)]WW[Phe(4-guanidino)][Phe(4-guanidino)]WW)) the “cell death during LDH study” value [3] was “Significant cell death”.

With `O=C(c1cc(Cc2n[nH]c(=O)c3ccccc23)ccc1F)N1CCN(C(=O)C2CC2)CC1` [Olaparib, 4-[3-(4-cyclopropanecarbonylpiperazine-1-carbonyl)-4-fluorobenzyl]-2H-phthalazin-1-one] the “ATP levels (CellTiter-Glo)” value (NCI-H460 cells [4]; [6]) was “partially restored; also recorded: partially reverses”, the “HILR-001-mediated cell death (alamarBlue)” value (NCI-H460 cells [4]; [6]) was “reversed” and the “ATP levels or cancer cell death” value (NCI-H460 cells [4]; 30 nM Olaparib with 100 μM and 200 μM HILR-001) was “did not affect”.

In the case of “Cyc-[AAAGGGPRGPRPGGGAAA] (cyclic; Cyclic peptide; (1)..(18) cyclic peptide) [SEQ ID NO: 6]”, the “activity of PRGPRP cyclic peptides with non-amphiphilic backbone” value (from here on “activity … with non-amphiphilic backbone”) (human cancer cell lines) is listed as “INACTIVE”.

In the case of “Cyc-[AAGPGGPRGPRPGGPGAA] (cyclic; cyclic peptide; (1)..(18) cyclic peptide) [SEQ ID NO: 9]”, the “activity … with non-amphiphilic backbone” value (human cancer cell lines) is given as “INACTIVE”.

In the case of “Cyc-[GGGGGGPRGPRPGGGGGG] (cyclic; cyclic peptide; (1)..(18) cyclic peptide) [SEQ ID NO: 7]”, the “activity … with non-amphiphilic backbone” value (human cancer cell lines) is listed as “INACTIVE”.

With “Cyc-[Gly-Asp-Glu-Val-NMeAsp-Sarc-Val-Trp-Trp-Arg-Arg-Trp-Trp-Arg-Arg-Trp-Trp] [HILR-D-01]” the “cell-killing of NCI-H460 cells” value (NCI-H460 cells [5]) was “weak but significant dose-related cell-killing; also recorded: mild but significant killing”.

In the case of “Cyc-[PRGPRPVKLALKLALKFP] (cyclic; cyclic peptide; (1)..(18) cyclic peptide) [THR53]”, the “killing NCI-H460 human non-small cell lung cancer cells” value [1] is given as “(“THR5”) ACTIVE”.

For “Cyc-[PRGPRPVKLALKLALKLAL] (cyclic; cyclic peptide; (1)..(19) cyclic peptide) [THR52]”, the “killing NCI-H460 human non-small cell lung cancer cells” value [1] is listed as “(“THR52”) INACTIVE”.

With “cyclo-[Pro-Hca-Gly-Pro-Hca-Pro-Val-Trp-Trp-Gpa-Gpa-Trp-Trp-Gpa-Gpa-Trp-Trp] (cyclo(P[Abu(4-SO3H)]GP[Abu(4-SO3H)]PVWW[Phe(4-guanidino)][Phe(4-guanidino)]WW[Phe(4-guanidino)][Phe(4-guanidino)]WW)) [HILR-D-07]” the “cell killing ability with co-administration of 2-DOG” value [2] was “enhanced”.
